This assay has as its system Rattus norvegicus. Put plainly: Average percentage HDLC change in 6 cholesterol cholic acid-fed male rats (versus control) after treatment for 8 days at a dose of 100 mg/kg/day. The assay is classed as functional.

Turning to `C[C@@H]1CN2C(=O)c3ccccc3[C@@](O)(c3ccc(F)cc3)C2=N1`, the HDL-C change was 105%.
As for `C[C@@H]1CN2C(=O)c3ccccc3C(O)(c3ccc(F)cc3)C2=N1` (single isomer, unassigned), the figure is 38%; as for `O=C1c2ccccc2C(O)(c2ccc(F)cc2)C2=NCCN12` (stereo not drawn), 0%; as for `CC1(C)CN2C(=O)c3ccccc3C(O)(c3ccc(F)cc3)C2=N1` (stereo not drawn), 90%.
Consider `CC1(C)CN2C(=O)c3ccccc3C(O)(c3ccccc3)C2=N1` (stereo not drawn), for which the HDL-C change was 55%.
Under `O=C1c2ccccc2C(O)(c2ccc(F)cc2)C2=NC3(CCCC3)CN12` (stereo not drawn) stands 21%; under `O=C1c2ncccc2C(O)(c2ccc(Cl)cc2)C2=NCCN12` (stereo not drawn), 49%; under `O=C1c2ccccc2C(O)(c2ccc(F)cc2)C2=NCCCN12` (stereo not drawn), 22%.
